Read-outs that look alike come from different tables or passages of the source.
What was measured:
[1] = target: BCL6-NCOR2(SMRT) corepressor protein-protein interaction (Homo sapiens (Human), UniProt P41182); assay: NanoBRET cell assay; assay type: cell-based; conditions: transfected HEK293T cells, 6 hr; for IC50: read-out: NanoBRET cell pIC50 (converted)
Procedure: A cellular nano-Bioluminescence Resonance Energy Transfer (nanoBRET) assay (Promega NanoBRET Nano-Glo Detection System, catalogue number N1662) was used to detect inhibition of the BCL6-NCOR2(SMRT) corepressor protein-protein interaction. DNA encoding full length BCL6 and NCOR2 were inserted into pFC32K.NanoLuc and pFC14K.HaloTag vectors (Promega) to produce C-terminal tagged fusion proteins BCL6-nanoLuc and NCOR2-HaloTag, respectively. HEK293T cells were plated (5×10^5) in T75 tissue culture flask and bulk transfected 48 hours later with Fugene 6 (Promega cat. #E2691) reagent and 18 μg total DNA plasmids encoding BCL6-nanoLuc as donor and NCOR2-HaloTag as acceptor, at a donor:acceptor DNA ratio of 1:25. At 24 hr post-transfection, HEK293T cells were collected and stored in liquid nitrogen in 90% FBS (PAN Biotech UK) and 10% DMSO. […] Frozen transfected HEK293T cells were thawed, centrifuged and freezing medium was replaced by phenol red-free OptiMEM+4% FBS (Life Technology). […] Cells were incubated for 6 hr at 37° C./5% C02 then NanoBRET furimazine substrate (Promega) was added to give a final concentration of 10 μM. After a short centrifugation the plates were read on an Envision (Perkin Elmer) plate reader equipped with a LUM/D600 Dual mirror, Lum 450/40 nm bandpass and D605 nm longpass filters, with a 0.2 sec reading to determine the BRET ratio. The % inhibition at each test concentration was calculated by normalising the BRET ratio to the appropriate high and low controls.

[2] = target: Trx-6×His-BCL6 (human BCL6 BTB domain covering amino-acid sequence 5-129) (Homo sapiens (Human), UniProt P41182); assay: HTRF in vitro assay (BCL6 / BCOR-AF633 peptide); assay type: binding; conditions: for IC50: read-out: HTRF pIC50 (converted)
Procedure: The % inhibition at each concentration was calculated by normalising FRET ratio to the appropriate high (DMSO with all reagents) and low (DMSO without BCL6) controls.

[3] = further generated data, 1 nM Trx-6×His-BCL6, 300 nM BCOR-AF633 peptide, 0.5 nM anti-6×His-Terbium cryptate
[4] = initially generated data, 10 nM Trx-6×His-BCL6, 300 nM BCOR-AF633 peptide, 1 nM anti-6×His-Terbium cryptate

Structure (SMILES)	HTRF pIC50 [2, 3]	IC50 ([1]; further generated data)	also measured
CNC(=O)c1cc(Nc2ccc3c(c2)n(CCC(C)(C)O)c(=O)n3C)c(C#N)c(Cl)n1 [Example 1a, 6-Chloro-5-cyano-4-[[3-(3-hydroxy-3-methyl-butyl)-1-methyl-2-oxo-benzimidazol-5-yl]amino]-N-methyl-pyridine-2-carboxamide]	6.22		NanoBRET cell pIC50 ([1]; further generated data): 5.45; IC50 ([1]; initially generated data): 3550 nM; HTRF pIC50 [2, 4]: 6.48
Cc1cc(Nc2ccc3c(c2)n(CCC(C)(C)O)c(=O)n3C)c(C#N)c(Cl)n1 [Example 1b, 2-chloro-4-[[3-(3-hydroxy-3-methyl-butyl)-1-methyl-2-oxo-benzimidazol-5-yl]amino]-6-methyl-pyridine-3-carbonitrile]			NanoBRET cell pIC50 ([1]; further generated data): 5.28; IC50 ([1]; initially generated data): 5250 nM; HTRF pIC50 [2, 4]: 6.09
CNC(=O)c1cc(Nc2ccc3c(c2)n(CC[C@@H](C)O)c(=O)n3C)c(C#N)c(Cl)n1 [Example 4, 6-Chloro-5-cyano-4-[[3-[(3R)-3-hydroxybutyl]-1-methyl-2-oxo-benzimidazol-5-yl]amino]-N-methyl-pyridine-2-carboxamide]	5.79		NanoBRET cell pIC50 ([1]; further generated data): 5.20; IC50 ([1]; initially generated data): 6310 nM; HTRF pIC50 [2, 4]: 5.99
Cc1cc(C)n(-c2ncc(Cl)c(Nc3ccc4c(c3)n(CCC(C)(C)O)c(=O)n4C)n2)n1 [Example 15a, 5-[[5-Chloro-2-(3,5-dimethylpyrazol-1-yl)pyrimidin-4-yl]amino]-3-(3-hydroxy-3-methyl-butyl)-1-methyl-benzimidazol-2-one]	6.61	1780 nM	IC50 ([1]; initially generated data): 2040 nM; HTRF pIC50 [2, 4]: 6.56
CCOC(=O)c1c(C)nn(-c2ncc(Cl)c(Nc3ccc4c(c3)n(CCC(C)(C)O)c(=O)n4C)n2)c1C [Example 15c]	6.22	2040 nM	
Cn1c(=O)n(CCC(C)(C)O)c2cc(Nc3nc(-n4ccc(C(F)(F)F)n4)ncc3Cl)ccc21 [Example 15d]	6.41	1290 nM	
COCC(C)(O)CCn1c(=O)n(C)c2ccc(Nc3nc(N4CCC(C(=O)N(C)C)CC4)ncc3Cl)cc21 (stereo not shown) [Example 15i]	6.75	2190 nM	
CCC(C)(O)CCn1c(=O)n(C)c2ccc(Nc3nc(N4CCC(C(=O)N(C)C)CC4)ncc3Cl)cc21 (stereo not shown) [Example 15l]	6.63	1320 nM	
Cc1nn(-c2ncc(Cl)c(Nc3ccc4c(c3)n(CCC(C)(C)O)c(=O)n4C)n2)c(C)c1Cl [Example 15n]	6.35	1820 nM	
Cn1c(=O)n(CCC(C)(C)O)c2cc(Nc3nc(-c4n[nH]c5ccccc45)ncc3Cl)ccc21 [Example 17a, 5-((5-chloro-2-(1H-indazol-3-yl)pyrimidin-4-yl)amino)-3-(3-hydroxy-3-methylbutyl)-1-methyl-1,3-dihydro-2H-benzo[d]imidazol-2-one]		1150 nM	IC50 [2, 3]: 537 nM
Cn1c(=O)n(CCC(C)(C)O)c2cc(Nc3nc(-n4ncc5ccccc54)ncc3Cl)ccc21 [Example 17b, 5-((5-chloro-2-(1H-indazol-1-yl)pyrimidin-4-yl)amino)-3-(3-hydroxy-3-methylbutyl)-1-methyl-1,3-dihydro-2H-benzo[d]imidazol-2-one]	6.21	1910 nM	
CN(C)C(=O)C1CCN(c2ncc(Cl)c(Nc3ccc4c(c3)n(CCC(C)(C)O)c(=O)n4C)n2)CC1 [Example 20c]	6.60	2140 nM	
C[C@@H]1CN(c2ncc(Cl)c(Nc3ccc4c(c3)n(CCC(C)(C)O)c(=O)n4C)n2)C[C@H](C2CC2)O1 [Example 21a, 5-((5-chloro-2-((2S,6R)-2-cyclopropyl-6-methylmorpholino)pyrimidin-4-yl)amino)-3-(3-hydroxy-3-methylbutyl)-1-methyl-1,3-dihydro-2H-benzo[d]imidazol-2-one]		1350 nM	IC50 [2, 3]: 100 nM
C[C@@H]1CN(c2ncc(Cl)c(Nc3ccc4c(c3)n(CCC(C)(C)O)c(=O)n4C)n2)C[C@@H](C2CC2)O1 [Example 21b, 5-((5-chloro-2-((2R,6R)-2-cyclopropyl-6-methylmorpholino)pyrimidin-4-yl)amino)-3-(3-hydroxy-3-methylbutyl)-1-methyl-1,3-dihydro-2H-benzo[d]imidazol-2-one]	7.01	1380 nM	
Cn1c(=O)n(CCC(C)(C)O)c2cc(Nc3nc(N4CCOC(C(F)(F)F)C4)ncc3Cl)ccc21 (stereo not shown) [Example 28b, 5-((5-chloro-2-(2-(trifluoromethyl)morpholino)pyrimidin-4-yl)amino)-3-(3-hydroxy-3-methylbutyl)-1-methyl-1,3-dihydro-2H-benzo[d]imidazol-2-one]	6.55	2190 nM	
Cc1cc(C)n(-c2cc(Nc3ccc4c(c3)n(CCC(C)(C)O)c(=O)n4C)c(Cl)cn2)n1 [Example 30a, 5-((5-chloro-2-(3,5-dimethyl-1H-pyrazol-1-yl)pyridin-4-yl)amino)-3-(3-hydroxy-3-methylbutyl)-1-methyl-1,3-dihydro-2H-benzo[d]imidazol-2-one]	6.09	3090 nM	
Cn1c(=O)n(CCC(C)(C)O)c2cc(Nc3nc(N4CCC(C(F)(F)F)CC4)ncc3Cl)ccc21 [Example 35g, 5-((5-chloro-2-(4-(trifluoromethyl)piperidin-1-yl)pyrimidin-4-yl)amino)-3-(3-hydroxy-3-methylbutyl)-1-methyl-1,3-dihydro-2H-benzo[d]imidazol-2-one]	6.12	2240 nM	
CC(C)(O)CCn1c(=O)n(CCC(C)(C)O)c2cc(Nc3nc(N4CC(C)(C)OC(C)(C)C4)ncc3Cl)ccc21 [Example 35k, 5-((5-chloro-2-(2,2,6,6-tetramethylmorpholino)pyrimidin-4-yl)amino)-1,3-bis(3-hydroxy-3-methylbutyl)-1,3-dihydro-2H-benzo[d]imidazol-2-one]	6.56	1480 nM	
C[C@@H]1CN(c2ncc(Cl)c(Nc3ccc4c(c3)n(CCC(C)(C)O)c(=O)n4C)n2)C[C@H](C)N1C [Example 35l, 5-((5-chloro-2-((3S,5R)-3,4,5-trimethylpiperazin-1-yl)pyrimidin-4-yl)amino)-3-(3-hydroxy-3-methylbutyl)-1-methyl-1,3-dihydro-2H-benzo[d]imidazol-2-one]	6.76	1510 nM	
Cn1c(=O)n(CCC(C)(C)O)c2cc(Nc3nc(N4[C@@H]5CCC[C@H]4CC5)ncc3Cl)ccc21 [Example 35m, 5-((2-((1R,5S)-8-azabicyclo[3.2.1]octan-8-yl)-5-chloropyrimidin-4-yl)amino)-3-(3-hydroxy-3-methylbutyl)-1-methyl-1,3-dihydro-2H-benzo[d]imidazol-2-one]	6.81	741 nM	
Cn1c(=O)n(CCC(C)(C)O)c2cc(Nc3nc(N4CCCC(CO)C4)ncc3Cl)ccc21 (stereo not shown) [Example 42g, 5-((5-chloro-2-(3-(hydroxymethyl)piperidin-1-yl)pyrimidin-4-yl)amino)-3-(3-hydroxy-3-methylbutyl)-1-methyl-1,3-dihydro-2H-benzo[d]imidazol-2-one]	6.92		
Cn1c(=O)n(CCC(C)(C)O)c2cc(Nc3nc(N4CCC(N5CCOCC5)CC4)ncc3Cl)ccc21 [Example 42h, 5-((5-chloro-2-(4-morpholinopiperidin-1-yl)pyrimidin-4-yl)amino)-3-(3-hydroxy-3-methylbutyl)-1-methyl-1,3-dihydro-2H-benzo[d]imidazol-2-one]	6.88		
Cn1c(=O)n(CCC(C)(C)O)c2cc(Nc3nc(N4CCC(n5cccn5)CC4)ncc3Cl)ccc21 [Example 42i, 5-((2-(4-(1H-pyrazol-1-yl)piperidin-1-yl)-5-chloropyrimidin-4-yl)amino)-3-(3-hydroxy-3-methylbutyl)-1-methyl-1,3-dihydro-2H-benzo[d]imidazol-2-one]	6.85		
Cn1c(=O)n(CCC(C)(C)O)c2cc(Nc3nc(N4CCOC(CO)C4)ncc3Cl)ccc21 (stereo not shown) [Example 42j, 5-((5-chloro-2-(2-(hydroxymethyl)morpholino)pyrimidin-4-yl)amino)-3-(3-hydroxy-3-methylbutyl)-1-methyl-1,3-dihydro-2H-benzo[d]imidazol-2-one]	6.81		
Cn1c(=O)n(CC2CCCN(C(=O)OC(C)(C)C)C2)c2cc(Nc3ccnc(Cl)c3C#N)ccc21 (stereo not shown) [tert-butyl 3-((6-((2-chloro-3-cyanopyridin-4-yl)amino)-3-methyl-2-oxo-2,3-dihydro-1H-benzo[d]imidazol-1-yl)methyl)piperidine-1-carboxylate]			activity in the HTRF assay ([2]; result in words): did not exhibit the desired activity

Source: patent publication US12110286B2, “Benzimidazolone derived inhibitors of BCL6” (Cancer Research Technology Limited, priority 2017, dated 2024)
